According to patent US20210128534A1, “DRUG DELIVERY SYSTEMS” (YISSUM RESEARCH DEVELOPMENT COMPANY OF THE HEBREW …, priority 2018, published 2021):

How the values were obtained:
[1] = Dexamethasone palmitate solubility in FDA approved oils for ophthalmic use; format: physicochemical
Description: 8.1 Solubility in FDA Approved Oils for Ophthalmic Use
Dexamethasone palmitate solubility was assessed in mineral oil, castor oil and MCT.

[2] = Reconstitution stability of lyophilized tacrolimus NCs in isotonic aqueous solution; format: physicochemical; settings: room temperature
[3] = cited from earlier work

## CCCCCCCCCCCCCCCC(=O)OCC(=O)[C@@]1(O)[C@H](C)C[C@H]2[C@@H]3CCC4=CC(=O)C=C[C@]4(C)[C@@]3(F)[C@@H](O)C[C@@]21C [Dexamethasone, Dexamethasone palmitate]
[1]; solubility in Castor oil
  Concentration: 33600 µg/mL
[1]; solubility in MCT
  Concentration: 46600 µg/mL
[1]; solubility in Mineral oil
  Concentration: 1300 µg/mL

## C=CC[C@@H]1/C=C(\C)C[C@H](C)C[C@H](OC)[C@H]2O[C@@](O)(C(=O)C(=O)N3CCCC[C@H]3C(=O)O[C@H](/C(C)=C/[C@@H]3CC[C@@H](O)[C@H](OC)C3)[C@H](C)[C@@H](O)CC1=O)[C@H](C)C[C@@H]2OC [Tacrolimus]
[2]
  time the active remained stable in aqueous formulation: at least 2 weeks

## Cyclosporine A [CsA]
[3]; equivalent to 1 ng/mg
  skin levels reported to be active for psoriasis: 1000 ng/g
[3]; human patients with psoriasis, 12-hour trough
  CsA concentration associated with good clinical response: higher than 100 ng/ml
